Patent US20090155228A1, “COMPOUNDS, KITS AND METHODS FOR CONFERRING CYTOPROTECTION” (priority 2006, published 2009)
Values joined by “and” are separate entries in the source; they are usually repeats but may differ in a detail not shown here. Equal values may be shown once.

Columns and labels:
ABCG2 [1] = assay: RT-Q-PCR ABCG2 transcript level in monocyte-derived DCs; assay type: cell-based, human
Description: (§1) Cell culture and ligand treatment—Monocytes (98% CD14+) were obtained from buffy coats by Ficoll gradient centrifugation and immunomagnetic cell separation using anti-CD14-conjugated microbeads (VarioMACS; Miltenyi Biotec). […] Cells were cultured for 5 or 6 days (unless otherwise indicated) and the IL-4 and GM-CSF addition was repeated at day 3. Ligands or vehicle control (50% DMSO/ethanol) were added to the cell culture from the first day on. MonoMac-6 (MM6) cells were a kind gift of E. Duda (Biological Research Center, Szeged, Hungary).

ABCG2 [2] = assay: Flow cytometry of ABCG2 cell surface expression in DCs (5D3 antibody); assay type: cell-based, human; settings: DCs treated with RSG plus GW9662
Description: (§2) FACS analysis—Cell staining was performed using FITC- or PE-conjugated monoclonal antibodies: Labeled antibodies for flow cytometry included anti-CD1a-PE, CD1d-PE, CD80-PE, CD86-PE and isotype-matched controls (BD PharMingen). For the ABCG2 detection cells were fixed with 1% paraformaldehyde for 5 min, then incubated with unlabeled anti-ABCG2 (5D3) or isotype-matched control (R and D system) antibody for 30 min at 37° C., followed by staining with FITC-labeled anti-mouse antibody (BD PharMingen). The fluorescence of labeled cells was measured by using a FACSCalibur flow cytometer (Beckton Dickinson).

FABP4 [3] = assay: RT-Q-PCR FABP4 transcript level in monocyte-derived DCs; assay type: cell-based, human
Description: (§3) Cell culture and ligand treatment—Monocytes (98% CD14+) were obtained from buffy coats by Ficoll gradient centrifugation and immunomagnetic cell separation using anti-CD14-conjugated microbeads (VarioMACS; Miltenyi Biotec). DCs were prepared as described previously (Szatmari, I. et al. (2004) Immunity 21, 95-106). In brief, monocytes were resuspended into six-well culture dishes at a density of 1.5×10^6 cells/ml and cultured in RPMI 1640 supplemented with 10% FBS (Invitrogen), containing 800 U/ml GM-CSF (Leucomax) and 500 U/ml IL-4 (Peprotech). Cells were cultured for 5 or 6 days (unless otherwise indicated) and the IL-4 and GM-CSF addition was repeated at day 3. Ligands or vehicle control (50% DMSO/ethanol) were added to the cell culture from the first day on. MonoMac-6 (MM6) cells were a kind gift of E. Duda (Biological Research Center, Szeged, Hungary). These cells were cultured in RPMI 1640 supplemented with 10% FBS.

CD1d = assay: FACS cell surface expression of CD1d on DCs; assay type: cell-based, human; settings: PPARg activated DCs (2.5 μM RSG) with 1 μM KO143
Description: as §2

DCs = settings: MTT
Description: Cytotoxicity assay—Cytotoxicity assays were carried out using the MTT assay. Briefly, cells were plated in 96-well plates at a density of 10^5 cells per well. Mitoxantrone at various concentrations with or without KO143 was added to DCs and cells were incubated at 37° C. for 48 h. After incubation, cytotoxicity was assessed by using the MTT assay.

ABCG2 [4] = assay: Hoechst 33342 retention in DCs by CLSM and FACS; assay type: cell-based, human; settings: stimulated DCs, 1 μM KO143
Description: Measurement of Hoechst retention by CLSM and FACS—DCs were plated on Lab-Tek coverslip chambers. Cells were incubated with 0.5 μg/ml Hoechst 33342 for 1 h at 37° C. with or without KO143 (1 μM), then subjected to microscopic analysis. Hoechst fluorescence was measured on a Zeiss LSM 510 confocal microscope with a Plan-Apochromat 60× (NA 1.4) oil immersion objective using maximal detection pinhole diameter (1 mm) to get signal from the whole depth of the nucleus. Hoechst was excited by the 351 and 364 nm lines of an Ar ion laser, emission was measured through a 385-to-470 nm bandpass filter.
Hoechst content was also measured on a Becton Dickinson FACSVantage flow cytometer. Hoechst fluorescence was excited by the 351 and 364 nm lines and the blue and red Hoechst signals were detected through 402-to-446 nm and >650 nm filters, respectively.

CD1a [5] = assay: FACS cell surface expression of CD1a on DCs; assay type: cell-based, human; settings: PPARg activated DCs (2.5 μM RSG) with 1 μM KO143
Description: as §2

CD1a [6] = assay: RT-Q-PCR CD1a transcript level in DCs; assay type: cell-based, human; settings: PPARg activated DCs with 1 μM KO143; relative to cyclophilin A
Description: as §3

CD86 = assay: FACS cell surface expression of CD86 on DCs; assay type: cell-based, human; settings: PPARg activated DCs (2.5 μM RSG) with 1 μM KO143
Description: as §2

ABCG2 [7] = assay: Mitoxantrone uptake in DCs by FACS; assay type: cell-based, human; settings: 30 min
Description: Measurement of mitoxantrone uptake by FACS analyses—Cells were resuspended in phenol red free HPMI medium containing the desired fluorescent compound (20 μM mitoxantrone) with or without KO143 (1 μM) and incubated at 37° C. for 30 min, Thereafter the cells were washed with cold HPMI and subjected to flow cytometric analyses. The cells were assessed for fluorescence intensity with a FACSCalibur cytometer (Beckton Dickinson).

CD80 = assay: FACS cell surface expression of CD80 on DCs; assay type: cell-based, human; settings: PPARg activated DCs (2.5 μM RSG) with 1 μM KO143
Description: as §2

ABCA1 = assay: RT-Q-PCR ABCA1 mRNA level in DCs; assay type: cell-based, human; settings: DCs cultured 24 h, 1 μM RSG or 1 μM T0901317
Description: as §1

ABCG1 = assay: RT-Q-PCR ABCG1 mRNA level in DCs; assay type: cell-based, human; settings: DCs cultured 24 h, 1 μM RSG or 1 μM T0901317
Description: as §1

[8] = patients treated with 4 mg RSG; cited from earlier work
PPARd = assay: RT-Q-PCR PPARd transcript in MM6 cells after RNA interference; assay type: cell-based; settings: MM6 cells electroporated with 1.5 μg siRNA
Description: (§4) RNA interference—For siRNA delivery the AMAXA's Nucleofection technology (AMAXA) was applied. MM6 cells (1×10^6) were harvested and electroporated with 1.5 μg siRNA using the Cell line nucleofector kit V (AMAXA), program v-001. Applicants used a previously described PPARg specific siRNA sequence (Kelly, D. et al. (2004) Nat Immunol 5, 104-112): […]-d(TT) (SEQ ID NO. 10). As a negative control, Silencer Negative Control 1 siRNA (Ambion) was used.
as §3

ABCG2 [9] = assay: RT-Q-PCR ABCG2 transcript in MM6 cells; assay type: cell-based; settings: after RSG alone or with LG268, 24 h
Description: as §4, §3

PPARg = assay: RT-Q-PCR PPARg transcript in MM6 cells after RNA interference; assay type: cell-based; settings: MM6 cells electroporated with 1.5 μg siRNA
Description: as §4, §3

FABP4 [10] = assay: RT-Q-PCR FABP4 transcript in MM6 cells; assay type: cell-based; settings: after RSG alone or with LG268, 24 h
Description: as §4, §3

[11] = molecular target: T1, PPARgamma:RXRalpha heterodimer (Mus musculus (PPARg); Homo sapiens …, UniProt P37238;P19793 P37238:1-505,P19793:1-462); assay: competition; cold mutant at x10 and x20 does not compete; settings: tags: T7 Quick TNT, full-length
[12] = molecular target: T1, PPARgamma:RXRalpha heterodimer; assay: EMSA; supershift with anti-RXRa and anti-PPARg; competed by cold WT; settings: tags: T7 Quick TNT, full-length; label: 32P
[13] = molecular target: T1, PPARgamma:RXRalpha heterodimer; assay: EMSA; supershift with both antibodies; some aspecific binding also in blank; settings: tags: T7 Quick TNT, full-length; label: 32P
[14] = ligand treated monocyte-derived DCs: 2.5 μM RSG, 100 nM GW347845X, 1 μM troglitazone, relative to 36B4

Question: Which results are given for `O=C(Nc1ccccc1)c1cc([N+](=O)[O-])ccc1Cl` [GW9662]?
Answer: Effect of PPARg antagonist on RSG induction of ABCG2 mRNA (ABCG2 [1]; DCs, 2.5 μM RSG with 5 μM GW9662): abolished the induction of ABCG2; Cell surface expression of ABCG2 protein with PPARg antagonist (ABCG2 [2]): reduced

Question: With `COC(=O)c1ccccc1N[C@@H](Cc1ccc(OCCc2nc(-c3ccccc3)oc2C)cc1)C(=O)O` [GW347845X] as the molecule, how does the “FABP4 mRNA expression” value (FABP4 [3]; [14]) read?
Answer: induced

Question: And the “ABCG2 mRNA expression” value (ABCG2 [1]; [14])?
Answer: induced

Question: Which “Cell surface expression of CD1d with ABCG2 inhibitor” value (CD1d) does the source give for `COc1ccc2c3c([nH]c2c1)[C@H](CC(C)C)N1C(=O)[C@H](CCC(=O)OC(C)(C)C)NC(=O)[C@@H]1C3` [KO143] here?
Answer: did not change

Question: And the “Effect of ABCG2 inhibitor on protection against mitoxantrone” value (DCs; RSG treated DCs with KO143, 48 h)?
Answer: removed this protective effect

Question: What about the “Effect of ABCG2 inhibitor on reduced Hoechst dye accumulation” value (ABCG2 [4]) of the same molecule?
Answer: abolished the effect of the PPARg ligand treatment

Question: What about the “Cell surface expression of CD1a with ABCG2 inhibitor” value (CD1a [5]) of the same molecule?
Answer: slightly decreased

Question: And the “CD1a mRNA expression with ABCG2 inhibitor” value (CD1a [6])?
Answer: reduced

Question: And the “Cell surface expression of CD86 with ABCG2 inhibitor” value (CD86)?
Answer: did not change

Question: And the “Transcript level of FABP4 with ABCG2 inhibitor” value (FABP4 [3]; PPARg activated DCs with 1 μM KO143, relative to cyclophilin A)?
Answer: did not change

Question: What about the “Mitoxantrone extrusion by ABCG2 in activated cells” value (ABCG2 [7]; 1 μM KO143, 20 μM mitoxantrone) of the same molecule?
Answer: fully inhibited

Question: And the “Cell surface expression of CD80 with ABCG2 inhibitor” value (CD80)?
Answer: did not change

Question: What does the source list for `O=S(=O)(c1ccccc1)N(CC(F)(F)F)c1ccc(C(O)(C(F)(F)F)C(F)(F)F)cc1` [T0901317]?
Answer: ABCA1 mRNA expression (ABCA1): profound upregulation; ABCG2 mRNA expression with LXR specific agonist (ABCG2 [1]; DCs cultured 24 h, 1 μM T0901317): did not affect; ABCG1 mRNA expression (ABCG1): profound upregulation

Question: Which “Cell viability of control DCs” value (DCs; mitoxantrone 1.25 or 2.5 μg/ml, 48 h) does the source give for `O=C1c2c(O)ccc(O)c2C(=O)c2c(NCCNCCO)ccc(NCCNCCO)c21` [mitoxantrone] here?
Answer: induced cell death

Question: And the “Mitoxantrone accumulation in control DCs” value (ABCG2 [7]; 20 μM mitoxantrone)?
Answer: rapid

Question: For `CN(CCOc1ccc(CC2SC(=O)NC2=O)cc1)c1ccccn1` (centres unmarked) [rosiglitazone], which Plasma concentration [8] is on record?
Answer: 50-350 ng/ml and 100-1000 nM

Question: What does the source list for “GCCCTTCACTACTGTTGAC-d(TT) (sense GCCCTTCACTACTGTTGACTT; 3' dTdT overhang, further chemistry not given here) [PPARg-specific siRNA]”?
Answer: Expression of PPARd (PPARd): did not interfere; Induction of ABCG2 in siRNA treated MM6 cells (ABCG2 [9]): impaired induction; Expression of endogenous PPARg (PPARg): effectively inhibited; Induction of FABP4 in siRNA treated MM6 cells (FABP4 [10]): impaired induction

B1: ABCG2 element C mut (dsDNA)
DNA 1: GGTCATTTCGAGAGATGTTAGATGA
DNA 2: TCATCTAACATCTCTCGAAATGACC
Question: Does B1 bind [11]?
Answer: no binding

B2: ABCG2 element A mut (dsDNA)
DNA 1: GGGGTGGGCGAGAGAGGGCAATGGC
DNA 2: GCCATTGCCCTCTCTCGCCCACCCC
Question: Does B2 bind [11]?
Answer: no binding

B3: ABCG2 element A WT (dsDNA)
DNA 1: GGGGTGGAGGGCAGAGGGCAATGGC
DNA 2: GCCATTGCCCTCTGCCCTCCACCCC
Question: Does B3 bind [12]?
Answer: binds

B4: ABCG2 element B WT (dsDNA)
DNA 1: GGGCACAAGGTTAAAGGTTAAGTGA
DNA 2: TCACTTAACCTTTAACCTTGTGCCC
Question: Does B4 bind [13]?
Answer: binds

B5: ABCG2 element B mut (dsDNA)
DNA 1: GGGCACATTGAGAAAGGTTAAGTGA
DNA 2: TCACTTAACCTTTCTCAATGTGCCC
Question: Does B5 bind [11]?
Answer: no binding

B6: ABCG2 element C WT (dsDNA)
DNA 1: GGTCATTAGGTCAGATGTTAGATGA
DNA 2: TCATCTAACATCTGACCTAATGACC
Question: Does B6 bind [13]?
Answer: binds
